Results as given in patent US7138493B1, “ATP-binding cassette protein responsible for cytotoxin resistance” (The United States of America as represented by the …, priority 1998, dated 2006).

Legend:
[1] = test system: cells that overexpress MXR1; assay: Drug resistance of cells that overexpress MXR1; type: cell-based
Excerpt: These include mitoxantrone, several anthracyclines, rhodamine, daunomycin, SN-38 (the active metabolite of CPT-11), topotecan, and bisantrene. To identify compounds that can reverse the effect of ABCP overexpression, the concentration of drug that inhibits the proliferation of resistant cells by 50% (IC50) can be measured by an assay in the presence and absence of putative inhibitors. Compounds that cause a significant decrease in the IC50 will represent inhibitors and be characterized further.
These include mitoxantrone, several anthracyclines, rhodamine, daunomycin, SN-38 (the active metabolite of CPT-11), topotecan, and bisantrene. To identify compounds that can reverse the effect of MXR1 overexpression, the concentration of drug that inhibits the proliferation of resistant cells by 50% (IC50) will be measured in the presence and absence of putative inhibitors. Compounds that cause a significant decrease in the IC50 will represent inhibitors and be characterized further. For example, S1-M1-80 cells can be incubated in media containing 30 micromolar (IC10) of mitoxantrone and the proliferation of the cells measured by sulforhodamine staining after 96 hours with and without the addition of various potential inhibitors, as a screening assay. Next, for compounds that have potential activity, a formal calculation of the IC50 can be made by incubating the cells in a range of concentrations, diluting 3-fold from 3 mM, again, with and without the inhibitor in question. […] In the absence of a reversal agent, the IC50 is 100 micromolar for the S1M1-80 cells. Compounds that lower the IC50 for mitoxantrone can be tested for their ability to also lower the IC50 for other MXR1-transporting drugs such as adriamycin, topotecan, or bisantrene.

S1-M1-80 cells = assay: Proliferation of mitoxantrone resistant cells measured by sulforhodamine staining; type: cell-based, human
Method: The cells are then contacted with a toxic chemotherapy drug, such as mitoxantrone or daunomycin, in an amount that permits cell survival due to the resistance conferred by the ATP-binding cassette protein. The amount used is preferably from about 30 μM to about 3 mM. The cells are exposed to the drug for a time that is preferably from about 48 hours to about 96 hours. Cell growth is measured for these cells based on sulforhodamine staining measurement. Alternatively, cell growth can be monitored by vital stains, metabolite measurements or counting cell divisions.
One specific way to measure cell viability is by a calorimetric assay (Skehan et al., Natl. Cancer Inst. 82: 1117–1121 (1990)). […] The number of viable cells can then be determined by measuring the OD at 570 nm. Alternatively, viability of cells can be measured by counting cells with a cell counter or by incorporation of tritiated thymidine.
These include mitoxantrone, several anthracyclines, rhodamine, daunomycin, SN-38 (the active metabolite of CPT-11), topotecan, and bisantrene. […] For example, S1-M1-80 cells can be incubated in media containing 30 micromolar (IC10) of mitoxantrone and the proliferation of the cells measured by sulforhodamine staining after 96 hours with and without the addition of various potential inhibitors, as a screening assay. […]

Compound	resistance of cells that overexpress MXR1 to the drug [1]	IC50 (S1-M1-80 cells; Homo sapiens, S1-M1-80, S1M1-80 cells, in the absence of a reversal agent, read-out: IC50 (concentration of drug that inhibits the proliferation of resistant cells by 50%))	IC10 (S1-M1-80 cells; S1-M1-80 cells, concentration in media for the screening assay, 96 hours)
COc1cccc2c1C(=O)c1c(O)c3c(c(O)c1C2=O)C[C@@](O)(C(C)=O)C[C@@H]3O[C@H]1C[C@H](N)[C@H](O)[C@H](C)O1 [daunomycin]	resistant		
rhodamine	resistant		
O=C1c2c(O)ccc(O)c2C(=O)c2c(NCCNCCO)ccc(NCCNCCO)c21 [mitoxantrone]	resistant	100 µM	30 µM
CCc1c2c(nc3ccc(O)cc13)-c1cc3c(c(=O)n1C2)COC(=O)[C@]3(O)CC [SN-38]	resistant		
CC[C@@]1(O)C(=O)OCc2c1cc1n(c2=O)Cc2cc3c(CN(C)C)c(O)ccc3nc2-1 [topotecan]	resistant		
C(=N\NC1=NCCN1)/c1c2ccccc2c(/C=N/NC2=NCCN2)c2ccccc12 [bisantrene]	resistant		
